Results taken from article PMC9069406 (Acta Pharmaceutica Sinica. B, 2021).

Test system: 4T1 (murine TNBC) cells
Experiment: TNBC allograft model
Type: in vivo, mice
Settings: 0.5 mg/kg i.p. daily, 18 days

N.N.[Cl][Pt][Cl] [cisplatin]
reduction of average tumor weight at sacrifice: 25.2%
